Laboratory results: ChEMBL document CHEMBL4346691, “GABA allosteric modulators: An overview of recent developments in non-benzodiazepine modulators” (Eur J Med Chem, 2019)

Key:
[1] = organism: Homo sapiens; assay: Positive allosteric modulation of human GABA-A alpha4beta3delta receptor expressed in mouse L(tk-) cells assessed as GABA-induced membrane potential at 1 uM incubated for 2.5 min by FLIPR assay relative to control; format: cell-based
[2] = system: Xenopus laevis; assay: Anaesthetic activity in Xenopus laevis tadpoles assessed as dose causing loss of righting reflex measured every 10 mins up to 120 mins; format: functional, organism-based
[3] = target: GABA-A receptor; anion channel; assay: Displacement of [35S]TBPS from Sprague-Dawley rat brain cortical membrane GABAA receptor incubated for 90 mins by scintillation counting method
[4] = target: T1, GABA-A receptor; alpha-1/beta-2/gamma-2 (Homo sapiens) (UniProt P14867+P47870+P18507); assay: Positive allosteric modulation of human GABA-A alpha1beta2gamma2S receptor expressed in Xenopus laevis oocytes assessed as increase in GABA-induced chloride channel current at 100 uM by two-electrode voltage clamp method relative to control; format: cell-based
[5] = organism: Homo sapiens; assay: Selectivity ratio, ratio of EC50 for human GABA-A alpha4beta1delta receptor expressed in Xenopus laevis oocytes to EC50 for human GABA-A alpha4beta3delta receptor expressed in Xenopus laevis oocytes; format: cell-based
[6] = organism: Homo sapiens; assay: Partial agonist activity at human GABA-A alpha4beta3delta receptor expressed in Xenopus laevis oocytes assessed as maximal GABA response by electrophysiology method relative to GABA; format: cell-based
[7] = target: Gamma-aminobutyric acid receptor subunit alpha-4/beta-1/delta (Homo sapiens) (UniProt P48169+O14764+P18505); assay: Partial agonist activity at human GABA-A alpha4beta1delta receptor expressed in Xenopus laevis oocytes assessed as maximal GABA response by electrophysiology method relative to GABA; format: cell-based
[8] = organism: Homo sapiens; assay: Selectivity ratio, ratio of EC50 for human GABA-A alpha4beta1delta receptor expressed in Xenopus laevis oocytes to EC50 for human GABA-A alpha4beta2delta receptor expressed in Xenopus laevis oocytes; format: cell-based
[9] = Binding affinity to human GABA-A alpha4beta2delta receptor expressed in Xenopus laevis oocytes; format: cell-based
[10] = organism: Homo sapiens; assay: Agonist activity at human GABA-A alpha4beta2delta receptor expressed in Xenopus laevis oocytes assessed as maximal GABA response by electrophysiology method relative to GABA; format: cell-based
[11] = Binding affinity to human GABA-A alpha4beta3delta receptor expressed in Xenopus laevis oocytes; format: cell-based
[12] = Displacement of [3H]-Flumazenil from GABAA/BZD receptor in Sprague-Dawley rat cerebral cortex incubated for 40 mins by liquid scintillation counting method
[13] = target: T2, GABA-A receptor; alpha-5/beta-3/gamma-2 (Homo sapiens) (UniProt P18507+P28472+P31644); assay: Inverse agonist activity at recombinant human GABA-A alpha5beta3gamma2 receptor expressed in Xenopus laevis oocytes relative to control; format: cell-based
[14] = Inhibition of BZD receptor (unknown origin); parameters: species or system Homo sapiens
[15] = target: T1, GABA-A receptor; alpha-1/beta-2/gamma-2 (Homo sapiens); assay: Positive allosteric modulation of recombinant human GABAA alpha1beta2gamma2s receptor expressed in Xenopus laevis oocytes assessed as GABA-stimulated current amplitude at 300 uM measured for 2 min by electrophysiological method relative to control; format: cell-based
[16] = Displacement of [3H]-Flumazenil from GABAA/BZD receptor in rat cortical membranes; format: cell membranes
[17] = Binding affinity to recombinant human GABA-A alpha2beta3gamma2 receptor expressed in L(tk) cells; format: cell-based
[18] = Displacement of [3H]-Flumazenil from GABAA/BZD receptor in rat cortical membranes incubated for 40 mins by radioligand binding assay; format: cell membranes
[19] = target: T1, GABA-A receptor; alpha-1/beta-2/gamma-2 (Homo sapiens); assay: Positive allosteric modulation of human recombinant GABA-A alpha1beta2gamma2L receptor expressed in Xenopus laevis oocytes assessed as maximal current response by two-electrode voltage clamp method relative to control; format: cell-based
[20] = target: T3, GABA-A receptor; alpha-1/beta-2/gamma-2 (Homo sapiens, UniProt P14867+P18507+P47870); assay: Positive allosteric modulation of human recombinant GABA-A alpha1beta2gamma2L receptor expressed in Xenopus laevis oocytes by two-electrode voltage clamp method; format: cell-based
T3 sequence (P14867 whole entry): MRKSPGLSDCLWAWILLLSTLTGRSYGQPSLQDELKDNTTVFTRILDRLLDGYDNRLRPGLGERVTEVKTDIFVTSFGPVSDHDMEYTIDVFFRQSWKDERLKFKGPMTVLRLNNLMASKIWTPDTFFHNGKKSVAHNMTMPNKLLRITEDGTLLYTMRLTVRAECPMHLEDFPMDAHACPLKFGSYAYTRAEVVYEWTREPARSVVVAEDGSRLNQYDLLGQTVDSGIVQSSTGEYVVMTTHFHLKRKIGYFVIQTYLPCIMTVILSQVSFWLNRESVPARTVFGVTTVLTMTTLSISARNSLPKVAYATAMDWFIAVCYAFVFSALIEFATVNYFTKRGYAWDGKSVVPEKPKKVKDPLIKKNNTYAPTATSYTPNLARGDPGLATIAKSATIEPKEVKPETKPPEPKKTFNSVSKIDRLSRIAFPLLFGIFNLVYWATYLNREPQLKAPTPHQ
T3 sequence (P47870 whole entry): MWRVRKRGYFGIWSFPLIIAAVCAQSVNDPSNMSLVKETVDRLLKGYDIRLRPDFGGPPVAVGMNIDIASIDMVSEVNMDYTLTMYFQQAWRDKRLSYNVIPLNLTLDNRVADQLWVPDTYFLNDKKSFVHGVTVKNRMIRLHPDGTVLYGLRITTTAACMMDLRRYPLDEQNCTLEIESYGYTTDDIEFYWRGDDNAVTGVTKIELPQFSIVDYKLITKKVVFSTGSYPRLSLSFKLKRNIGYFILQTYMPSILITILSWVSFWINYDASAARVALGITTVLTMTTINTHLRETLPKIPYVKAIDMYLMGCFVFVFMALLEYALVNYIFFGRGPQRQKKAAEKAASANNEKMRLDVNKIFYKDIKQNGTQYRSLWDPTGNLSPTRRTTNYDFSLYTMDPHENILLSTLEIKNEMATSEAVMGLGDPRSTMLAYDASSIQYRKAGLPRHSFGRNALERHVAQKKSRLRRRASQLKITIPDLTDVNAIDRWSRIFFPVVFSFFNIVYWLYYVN
T3 sequence (P18507 whole entry): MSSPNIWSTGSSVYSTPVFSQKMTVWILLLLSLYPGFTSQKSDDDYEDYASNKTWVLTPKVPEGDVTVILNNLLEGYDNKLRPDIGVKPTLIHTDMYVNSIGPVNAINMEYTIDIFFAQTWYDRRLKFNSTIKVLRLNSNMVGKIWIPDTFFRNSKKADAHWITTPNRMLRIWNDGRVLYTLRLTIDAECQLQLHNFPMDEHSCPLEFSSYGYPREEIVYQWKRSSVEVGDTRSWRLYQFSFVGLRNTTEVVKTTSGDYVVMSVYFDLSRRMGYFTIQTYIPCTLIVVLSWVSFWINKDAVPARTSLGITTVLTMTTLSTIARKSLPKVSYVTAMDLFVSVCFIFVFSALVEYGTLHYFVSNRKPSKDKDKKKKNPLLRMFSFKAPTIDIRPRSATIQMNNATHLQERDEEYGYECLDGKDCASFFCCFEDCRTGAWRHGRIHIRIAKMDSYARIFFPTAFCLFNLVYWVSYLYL

[21] = target: GABA-A receptor; alpha-1/beta-3/gamma-2 (Homo sapiens) (UniProt P14867+P18507+P28472); assay: Positive allosteric modulation of human GABA-Aalpha1beta3gamma2 receptor expressed in mouse L(tk-) cells assessed as GABA-induced membrane potential at 10 uM incubated for 2.5 min by FLIPR assay relative to control; format: cell-based
[22] = organism: Homo sapiens; assay: Positive allosteric modulation of human GABA-A alpha4beta3delta receptor expressed in mouse L(tk-) cells assessed as GABA-induced membrane potential at 10 uM incubated for 2.5 min by FLIPR assay relative to control; format: cell-based
[23] = organism: Homo sapiens; assay: Positive allosteric modulation of human GABAA alpha4beta3gamma2 receptor expressed in mouse L(tk-) cells assessed as GABA-induced membrane potential at 10 uM incubated for 2.5 min by FLIPR assay relative to control; format: cell-based
[24] = target: T1, GABA-A receptor; alpha-1/beta-2/gamma-2 (Homo sapiens); assay: Positive allosteric modulation of human GABA-A alpha1beta2gamma2S receptor expressed in Xenopus laevis oocytes assessed as increase in GABA-induced chloride channel current by two-electrode voltage clamp method; format: cell-based
[25] = target: T3, GABA-A receptor; alpha-1/beta-2/gamma-2; assay: Positive allosteric modulation of human GABA-A alpha1beta2gamma2S receptor expressed in Xenopus laevis oocytes assessed as increase in GABA-induced chloride channel current by two-electrode voltage clamp method relative to control; format: cell-based
[26] = target: T4, GABA-A receptor; alpha-5/beta-3/gamma-2 (Homo sapiens, UniProt P18507+P28472+P31644); assay: Inverse agonist activity at recombinant human GABA-A alpha5beta3gamma2 receptor expressed in mouse L(tk-) cells by radioligand binding assay; format: cell-based
T4 sequence (P18507 whole entry): T3 sequence (P18507 whole entry)
T4 sequence (P28472 whole entry): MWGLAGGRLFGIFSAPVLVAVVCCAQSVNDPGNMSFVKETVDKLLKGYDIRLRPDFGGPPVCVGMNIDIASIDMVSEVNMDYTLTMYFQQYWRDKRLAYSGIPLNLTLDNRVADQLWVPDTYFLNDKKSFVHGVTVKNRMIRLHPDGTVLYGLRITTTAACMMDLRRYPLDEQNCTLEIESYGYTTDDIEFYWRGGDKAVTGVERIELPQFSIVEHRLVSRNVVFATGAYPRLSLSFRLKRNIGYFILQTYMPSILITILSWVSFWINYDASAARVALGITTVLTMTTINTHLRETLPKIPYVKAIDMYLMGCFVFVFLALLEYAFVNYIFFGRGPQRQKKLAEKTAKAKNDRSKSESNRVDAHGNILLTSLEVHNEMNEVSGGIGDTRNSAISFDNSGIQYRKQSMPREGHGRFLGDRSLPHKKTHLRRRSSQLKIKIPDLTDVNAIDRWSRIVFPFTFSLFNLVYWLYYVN
T4 sequence (P31644 whole entry): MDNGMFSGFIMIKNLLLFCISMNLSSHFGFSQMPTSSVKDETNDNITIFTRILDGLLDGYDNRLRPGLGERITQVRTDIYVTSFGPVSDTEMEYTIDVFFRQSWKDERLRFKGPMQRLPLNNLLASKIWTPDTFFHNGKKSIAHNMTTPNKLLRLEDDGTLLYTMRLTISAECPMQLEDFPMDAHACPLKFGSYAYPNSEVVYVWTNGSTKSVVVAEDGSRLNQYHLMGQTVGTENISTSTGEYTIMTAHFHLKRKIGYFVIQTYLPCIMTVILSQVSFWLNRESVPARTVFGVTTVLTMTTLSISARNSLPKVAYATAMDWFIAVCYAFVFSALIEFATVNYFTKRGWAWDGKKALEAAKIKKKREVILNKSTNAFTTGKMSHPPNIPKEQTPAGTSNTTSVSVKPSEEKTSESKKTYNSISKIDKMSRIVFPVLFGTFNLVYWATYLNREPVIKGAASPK

[27] = target: T2, GABA-A receptor; alpha-5/beta-3/gamma-2 (Homo sapiens); assay: Inverse agonist activity at recombinant human GABA-A alpha5beta3gamma2 receptor expressed in mouse L(tk-) cells by whole-cell patch-Clamp method; format: cell-based
[28] = Oral bioavailability in rat at 3 mg/kg; format: ADME, organism-based; conditions: in vivo

O=C(Nc1c(-c2cccs2)nc2ccccn12)c1ccc(Cl)cc1
Activity [1]: 126%

CC(C)C1CCCC(C(C)C)C1O (stereo not drawn)
EC50 [2]: 14000 nM

CCNC1=Nc2ccc(Cl)cc2C(C)(c2ccccc2)O1 (stereo not drawn) [ETIFOXINE]
IC50 [3]: 6700 nM

COc1c2ccoc2c(OCC=C(C)C)c2oc(=O)ccc12
Activity [4]: > 20%

COc1ccccc1-c1oc2ccc(C)cc2c(=O)c1O
Ratio EC50 [5]: 10 | Imax [6]: 105% | Imax [7]: 61% | Ratio EC50 [8]: 10 | EC50 [9]: 1400 nM | Imax [10]: 105% | EC50 [11]: 2500 nM

CC(C)=CCOc1c2ccoc2cc2oc(=O)ccc12
Activity [4]: > 20%

CC1CCCC(C)C1O (stereo not drawn)
EC50 [2]: 13100 nM

O=C1C[C@@H](c2ccc(O)cc2)Oc2c1c(O)cc(O)c2-c1c(O)cc(O)c2c(=O)cc(-c3ccc(O)cc3)oc12
Ki [12]: 280 nM

Cc1cc(-c2nnc3c4ccccc4c(OCc4cn(C)nn4)nn23)no1
Efficacy [13]: -29%

O=c1c2c[nH]c3c(c-2nn1-c1ccc(Cl)cc1)CCCC3
IC50 [14]: 1 nM

CC1=CCC(C(C)(C)O)CC1 (stereo not drawn)
Activity [15]: 91.2%

CCOC(=O)c1cnc2ccc(C(F)(F)F)cc2c1O
Ki [16]: 122 nM

c1ccc(COc2nn3c(-c4ccccc4)nnc3c3ccccc23)cc1
Ki [17]: 16 nM

CCCCCc1nsc2[nH]c3ccc(C)cc3c(=O)c12
Ki [18]: 13 nM

CCCc1cc2c(=O)c(-c3ccc4c(c3)OCO4)c(CC)oc2cc1OC(=O)CC
Emax [19]: 1080% | EC50 [20]: 9300 nM

O=C(Nc1c(-c2cccs2)nc2c(Br)cc(Br)cn12)c1ccc(Cl)cc1
Activity [21]: 407% | Activity [22]: 975% | Activity [23]: 306%

CCCC(=O)Nc1nsc2[nH]c3ccc(C)cc3c(=O)c12
Ki [18]: 2.8 nM

CC1(C)O[C@@H]1COc1c2occc2cc2ccc(=O)oc12
Activity [4]: > 20%

CC(C)[C@H]1CC[C@@H](C)C[C@@H]1O
Activity [15]: 226%

CC(C)=CCOc1c2occc2cc2ccc(=O)oc12
Activity [4]: > 20%

O=C1C[C@@H](c2ccc(O)cc2)Oc2cc(O)c(-c3c(O)cc(O)c4c(=O)cc(-c5ccc(O)cc5)oc34)c(O)c21
Ki [12]: 45 nM

OC1CCCCC1
Activity [15]: 30.1%

CC1(C)O[C@H]1COc1c2ccoc2cc2oc(=O)ccc12 [OXYPEUCEDANIN]
Activity [24]: 547% | EC50 [25]: 25000 nM | Activity [4]: > 20%

COc1ccc2ccc(=O)oc2c1CC=C(C)C [OSTHOLE]
Activity [24]: 116% | EC50 [25]: 14000 nM | Activity [4]: > 20%

C=C(C)[C@H]1CC[C@H](C)C[C@@H]1O
Activity [15]: 280%

c1ccc(-c2nnc3c4ccccc4c(OCc4ccccn4)nn23)cc1
Ki [17]: 1.7 nM

Cc1cc(-c2nncc3c(C(C)(C)C)c(OCc4ncnn4C)nn23)no1
Ki [26]: 3 nM | Efficacy [27]: -55%

c1ccc(-c2nnc3c4c(c(OCc5ccccn5)nn23)C2CCC4CC2)cc1
bioavailability [28]: 33% | Ki [17]: 26 nM
